Data: patent US7323466B2, “Morpholine derivatives as 5HT2C receptor agonists for the treatment of obesity” (Hoffman-La Roche Inc., priority 2005, dated 2008)
pEC50, pKi: −log10 of the molar value. Like-named read-outs stand apart in the source and are kept apart here.

Tests used:
human 5-HT2B receptors = molecular target: T1, human 5-HT2B receptors (Homo sapiens, UniProt P41595); assay: Binding to the 5-HT2B receptor, [3H]-5-HT, CHO cell line (Method (b))
T1 construct: expressed in transfected cells; host or cells: CHO cell line
T1 sequence (P41595 whole entry): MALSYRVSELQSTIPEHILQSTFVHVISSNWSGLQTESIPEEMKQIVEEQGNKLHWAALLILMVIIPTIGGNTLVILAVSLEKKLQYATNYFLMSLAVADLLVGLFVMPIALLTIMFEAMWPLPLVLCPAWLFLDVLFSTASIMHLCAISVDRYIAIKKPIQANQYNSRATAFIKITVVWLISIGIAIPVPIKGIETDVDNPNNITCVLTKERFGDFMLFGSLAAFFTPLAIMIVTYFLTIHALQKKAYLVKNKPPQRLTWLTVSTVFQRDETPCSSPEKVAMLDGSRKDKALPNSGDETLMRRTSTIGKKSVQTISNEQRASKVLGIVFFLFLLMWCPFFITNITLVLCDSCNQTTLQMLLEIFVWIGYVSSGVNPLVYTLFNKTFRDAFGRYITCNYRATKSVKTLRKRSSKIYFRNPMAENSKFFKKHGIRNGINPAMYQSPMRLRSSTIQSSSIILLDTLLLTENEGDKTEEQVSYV
Protocol: (§1) The binding of compounds of formula (I) to serotonin receptors was determined in vitro by standard methods. The preparations were investigated in accordance with the assays given hereinafter.
Method (b): For the binding to the 5-HT2B receptor the 5-HT2B receptors were radiolabeled with [^3H]-5-HT. The affinity of the compounds for human 5-HT2B receptors in a CHO cell line was determined according to the procedure of K. Schmuck, C. Ullmer, P. Engels and H. Lubbert, FEBS Lett., 1994, 342, 85-90.

5-HT2C receptor [1] = molecular target: T2, 5-HT2C receptor (Homo sapiens, UniProt P28335); assay: Binding to the 5-HT2C receptor, [3H]-5-HT, CHO cell line (Method (a)); parameters: expressed in transfected cells; host or cells: CHO cell line
T2 sequence (P28335 33-458): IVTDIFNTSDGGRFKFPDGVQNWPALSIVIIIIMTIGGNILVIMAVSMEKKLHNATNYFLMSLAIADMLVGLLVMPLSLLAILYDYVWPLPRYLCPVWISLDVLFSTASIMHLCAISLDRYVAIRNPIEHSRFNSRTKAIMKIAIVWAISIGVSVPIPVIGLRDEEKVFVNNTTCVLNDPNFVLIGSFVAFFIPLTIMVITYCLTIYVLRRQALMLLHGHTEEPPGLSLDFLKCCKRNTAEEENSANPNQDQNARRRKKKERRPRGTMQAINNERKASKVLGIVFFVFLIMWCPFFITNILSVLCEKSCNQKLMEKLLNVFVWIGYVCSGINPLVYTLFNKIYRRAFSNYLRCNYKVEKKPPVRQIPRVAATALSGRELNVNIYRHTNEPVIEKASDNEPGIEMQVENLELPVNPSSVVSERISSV
Protocol: as §1
Method (a): For the binding to the 5-HT2C receptor the 5-HT2C receptors were radiolabeled with [^3H]-5-HT. The affinity of the compounds for 5-HT2C receptors in a CHO cell line was determined according to the procedure of D. Hoyer, G. Engel and H. O. Kalkman, European J. Pharmacol., 1985, 118, 13-23.

5-HT2A receptor [2] = molecular target: T3, 5-HT2A receptor (Homo sapiens, UniProt P28223); assay: Functional activity, FLIPR calcium assay, CHO cells expressing human 5-HT2A; assay type: cell-based; parameters: expressed in transfected cells; host or cells: CHO cells; conditions: for pEC50: FLIPR, CHO cells, Fluo-3-AM, read-out: h5-HT2A EC50; for h5-HT2A Rel. Eff.: maximum fluorescent signal relative to 10 μM 5-HT (defined as 100%)
T3 sequence (P28223 whole entry): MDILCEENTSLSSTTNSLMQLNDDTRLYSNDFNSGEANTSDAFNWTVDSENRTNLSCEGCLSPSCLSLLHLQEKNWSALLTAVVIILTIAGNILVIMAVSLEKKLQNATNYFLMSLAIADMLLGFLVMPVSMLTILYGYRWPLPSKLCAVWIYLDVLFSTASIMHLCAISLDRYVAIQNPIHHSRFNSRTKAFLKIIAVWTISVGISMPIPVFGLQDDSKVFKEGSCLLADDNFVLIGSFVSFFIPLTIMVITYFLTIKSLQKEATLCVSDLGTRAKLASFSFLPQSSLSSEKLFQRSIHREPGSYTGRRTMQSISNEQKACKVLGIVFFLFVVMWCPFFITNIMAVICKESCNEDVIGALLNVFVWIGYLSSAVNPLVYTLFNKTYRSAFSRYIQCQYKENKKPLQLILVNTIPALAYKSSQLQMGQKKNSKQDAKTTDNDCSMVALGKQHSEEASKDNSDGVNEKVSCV
Protocol: (§2) The functional activity of compounds of formula (I) was assayed using a Fluorimetric Imaging Plate Reader (FLIPR). CHO cells expressing the human 5-HT2C or human 5-HT2A receptors were counted and plated into standard 96 well microtitre plates on the day before testing to give a confluent monolayer. The cells were then loaded with the calcium sensitive dye, Fluo-3-AM. Unincorporated dye was removed using an automated cell washer to leave a total volume of 100 μL/well of assay buffer (Hanks balanced salt solution containing 20 mM Hepes and 2.5 mM probenecid). The drug (dissolved in 50 μL of the assay buffer) was added at a rate of 70 μL/sec to each well of the FLIPR 96 well plate during fluorescence measurements. The measurements were taken at 1 sec intervals and the maximum fluorescent signal was measured (approx 10-15 secs after drug addition) and compared with the response produced by 10 μM 5-HT (defined as 100%) to which it was expressed as a percentage response (relative efficacy). Dose response curves were constructed using Graphpad Prism (Graph Software Inc.).

5-HT2C receptor [3] = molecular target: T2, 5-HT2C receptor; assay: Functional activity, FLIPR calcium assay, CHO cells expressing human 5-HT2C; assay type: cell-based; parameters: expressed in transfected cells; host or cells: CHO cells; conditions: for h5-HT2C Rel. Eff.: maximum fluorescent signal relative to 10 μM 5-HT (defined as 100%)
Protocol: as §2

5-HT2A receptor [4] = molecular target: T3, 5-HT2A receptor; assay: Binding to the 5-HT2A receptor, [125I]-DOI, CHO cell line (Method (c)); parameters: expressed in transfected cells; host or cells: CHO cell line
Protocol: as §1
Method (c): For the binding to the 5-HT2A receptor the 5-HT2A receptors were radiolabeled with [^125I]-DOI. The affinity of the compounds for 5-HT2A receptors in a CHO cell line was determined according to the procedure of D. J. McKenna and S. J. Peroutka, J. Neurosci., 1989, 9, 3482-90.

[5] = Method (b), [3H]-5-HT, human 5-HT2B, CHO cell line, read-out: Ki (2B)
[6] = Method (a), [3H]-5-HT, CHO cell line, read-out: Ki (2C)
[7] = FLIPR, CHO cells, Fluo-3-AM, read-out: h5-HT2C EC50
[8] = Method (c), [125I]-DOI, CHO cell line, read-out: Ki (2A)

| SMILES | pKi (human 5-HT2B receptors) | pKi (5-HT2C receptor [1]) | pEC50 (5-HT2A receptor [2]) | h5-HT2A Rel. Eff. (5-HT2A receptor [2]) [%] | pEC50 (5-HT2C receptor [3]) | h5-HT2C Rel. Eff. (5-HT2C receptor [3]) [%] | pKi (5-HT2A receptor [4]) | pKi (human 5-HT2B receptors; [5]) | pKi (5-HT2C receptor [1]; [6]) | pEC50 (5-HT2C receptor [3]; [7]) | pKi (5-HT2A receptor [4]; [8]) |
| --- | --- | --- | --- | --- | --- | --- | --- | --- | --- | --- | --- |
| c1ccc(C[C@@H]2CNCCO2)cc1 [reference compound] | < 5.00 | 6.77 | < 5.52 | 2 | < 5.52 | 41 | < 5.00 | – | – | – | – |
| FC(F)(F)c1cccc(C[C@@H]2CNCCO2)c1 [Example 14, (R)-2-(3-trifluoromethyl)benzylmorpholine] | – | – | 6.29 | 47 | – | 97 | – | 7.26 | 8.00 | 8.15 | 7.05 |
| COc1c(C)cc(C[C@@H]2CNCCO2)cc1Br [Example 46, (R)-2-(3-bromo-4-methoxy-5-methyl-benzyl)morpholine] | – | – | < 5.52 | 21 | – | 94 | – | < 5.00 | 7.09 | 7.28 | 6.19 |
